Laboratory results reported in US20220395487A1, “RIG-I INNATE IMMUNE RECEPTOR ANTAGONISTS AND METHODS OF USING SAME” (YALE UNIVERSITY, priority 2019, published 2022).

Columns and labels:
A549 cells = test: qRT-PCR of metabolism and stress marker genes (ACTB, GAPDH, p21, BAX) in A549 cells; type: cell-based, human; conditions: p21, BAX by qRT-PCR
Method: In the second assay, inhibition of RIG-I that is endogenously expressed in A549 cells was evaluated by monitoring IFN and ISG levels by qRT-PCR. A549 cells were propagated in T75 flasks containing Dulbecco's Modified Eagle Medium, DMEM, (Life Technologies) supplemented with 10% heat-inactivated fetal bovine serum (Hyclone) and Non-Essential Amino Acids (Life Technologies). For the assay, 0.5 ml of cells at 100,000 cells/ml was seeded in 24-well plates. After 24 h, DMEM growth media was replaced with media containing drug, as described above for the IFN induction assay using HEK293T cells. After 30 minutes, the cells were transfected with 1 μg of the synthetic stem-loop RNA (SLR14), using the Lipofectamine 2000 transfection reagent. After 5-6 hours, cells were harvested and total RNA was isolated using E.Z.N.A total RNA isolation kit (Omega Bio-tek), following the manufacturer's instructions. […] Each sample was analyzed in triplicate and normalized to HPRT expression. Gene expression quantification was performed according to the Livak ΔΔCt method.
These experiments were consistent with a target-specific response to the compounds. […] To evaluate interference with cell growth or viability, genes that represent markers of cell metabolism and stress response (ACTB, GAPDH, p21, BAX) were also simultaneously monitored. […]

RIG-I = target: T1, RIG-I (Homo sapiens, UniProt O95786); test: Absorbance titration of compound with RIG-I protein; type: binding; parameters: The native, full-length protein was expressed and purified using methods adapted from published protocols; SUMO (pET-SUMO vector; captured on Ni-NTA) (N, cleaved yes); made in house; host or cells: Rosetta II(DE3) Escherichia coli
T1 sequence (O95786 1-925): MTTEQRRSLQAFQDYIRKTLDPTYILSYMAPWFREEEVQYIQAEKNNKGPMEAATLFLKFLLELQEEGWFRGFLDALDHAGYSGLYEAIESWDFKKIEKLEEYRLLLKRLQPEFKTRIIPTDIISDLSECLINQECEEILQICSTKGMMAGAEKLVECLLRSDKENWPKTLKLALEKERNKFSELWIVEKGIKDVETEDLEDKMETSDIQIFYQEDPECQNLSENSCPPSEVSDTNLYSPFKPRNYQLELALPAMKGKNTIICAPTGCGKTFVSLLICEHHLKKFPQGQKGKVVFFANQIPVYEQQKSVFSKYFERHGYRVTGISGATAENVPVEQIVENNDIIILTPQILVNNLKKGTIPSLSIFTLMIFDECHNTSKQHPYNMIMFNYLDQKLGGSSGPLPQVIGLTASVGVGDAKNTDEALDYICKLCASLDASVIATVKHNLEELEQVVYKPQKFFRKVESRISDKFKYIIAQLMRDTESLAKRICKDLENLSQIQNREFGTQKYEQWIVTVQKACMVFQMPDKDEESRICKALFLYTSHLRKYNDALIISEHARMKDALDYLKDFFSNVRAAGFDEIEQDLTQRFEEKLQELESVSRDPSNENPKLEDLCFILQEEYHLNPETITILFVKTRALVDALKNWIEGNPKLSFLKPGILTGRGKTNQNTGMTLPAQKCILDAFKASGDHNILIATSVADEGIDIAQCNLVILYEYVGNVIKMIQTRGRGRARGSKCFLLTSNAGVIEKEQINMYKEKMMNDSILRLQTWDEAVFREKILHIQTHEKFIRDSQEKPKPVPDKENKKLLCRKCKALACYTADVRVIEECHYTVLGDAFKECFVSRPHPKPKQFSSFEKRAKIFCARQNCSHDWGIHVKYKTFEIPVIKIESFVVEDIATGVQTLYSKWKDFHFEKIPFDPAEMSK
Method: FIG. 1A illustrates the structure of RIG-I ΔCARDs bound to a 14 base pair RNA duplex with ADP▪BeF3 (PDBID:5E3H). FIG. 1B illustrates representative IC50 curves for active compounds. Relative activity of a compound was calculated as a fraction of “no inhibitor” measurement and plotted vs. inhibitor concentration. Each data point represents a mean of n=3 determinations±the standard deviation. FIG. 1C illustrates a representative absorption titration spectra of RIG012 binding to RIG-I. Protein concentrations are indicated in figure legend. (Inset) Stoichiometry of RIG-I binding. Fraction bound (A) is plotted against fractional change in RIG-I concentration (ΔRIG-I). Slope=0.95±0.06. […]
Although IC50 values provide a valuable metric of association for enzyme inhibitors, it was of interest to determine directly whether the lead compound, RIG012, binds to the RIG-I protein. Binding studies were facilitated by the fact that RIG012 contains a strong chromophore that absorbs in the visible range (λmax of 470 nm), making it possible to conduct classical absorbance titrations of the compound with increasing amounts of RIG-I. Upon binding to RIG-I, the 470 nm absorbance band of RIG012 undergoes a dramatic hyperchromic shift to higher intensity values, and the magnitude of this shift is proportional to the relative fraction of bound small molecule (FIG. 1C). […]

slope of fraction bound vs fractional change in RIG-I concentration (stoichiometry of RIG-I binding) (RIG-I; absorbance titration at 470 nm, two independent experiments ± SD): 0.95±0.06 | stoichiometry of compound:RIG-I complex (RIG-I; absorbance titration, stoichiometric binding regime): 1:1 complex
Compound: CCC1(CC)C(=O)N=C2C1=C(OCc1ccccc1)C(=O)c1ccccc12 [RIG012, 4-Benzyloxy-3,3-diethyl-2H,3H,5H-benzo[g]indole-2,5-dione]
expression of genes involved in cell viability and metabolism (A549 cells): unaffected
